# According to US10913771B2, “Peptide for preventing or treating inflammatory diseases and use thereof” (KINE SCIENCES Co., Ltd., priority 2016, dated 2021):
# Several values for one entry are separate records, joined by “and”; a condition that tells them apart may be missing. Equal values may be shown once. Ends that are not written are not given here.
# Columns and labels:
# [1] = test system: collagen-induced arthritis (CIA) mouse model; assay: Arthritis progression index in collagen-induced arthritis mouse model; assay type: in vivo, DBA/1J mouse
# Protocol: In Example 2, using a collagen-induced arthritis mouse model in the following document, a therapeutic effect of a PSP dimer or trimer for a representative inflammatory disease, rheumatoid arthritis was confirmed (Nat Protoc. 2007; 2(5):1269-75.).
# A collagen-induced arthritis (CIA) mouse model was prepared as follows, as an autoimmune disease-based arthritis model with characteristics similar to human rheumatoid arthritis.
# First, a bovine type II collagen (Chondrex Corporation, USA) and a Freund's complete adjuvant (Chondrex Corporation, USA) were mixed at a ratio of 1:1 and emulsified, and then 50 μl of the emulsified collagen solution was injected intradermally into the tail of a 6-week-old DBA/1J mouse to induce primary immunization. At two weeks after the primary immunization, the bovine type II collagen and the Freund's complete adjuvant were mixed at a ratio of 1:1 and emulsified, and then 50 μl of the emulsified collagen solution was injected intradermally into the tail of the mouse again to induce secondary immunization (boosting). After the secondary immunization, the peptide of the present invention (the PSP dimer (1 μmole) or the PSP trimer (1 μmole)) was administered intraperitoneally three times a week from the next day, and as a comparative experimental group, a PSP monomer-treated group and as a control (Vehicle control), a PBS-treated group were used, respectively. The preparation process of the collagen-induced arthritis mouse model and the administration time of the peptide were schematically illustrated in FIG. 1.
# In order to investigate the development of arthritis progression according to the peptide treatment of the present invention, the deepening degree of arthritis with time was measured by evaluating an arthritis progression index. Two observers who were unaware of the specific experimental conditions evaluated progression of arthritis three times a week. In this case, the arthritis progression index was evaluated by 0 to 4 scores per leg according to an arthritis progression evaluation standard by Rossoliniec and the like in Table 2 below to be represented by a total of 0 to 16 scores (a sum of four legs), and thereafter, two observers calculated an average value of the evaluated results to digitize the severity of arthritis.
# Methotrexate (MTX), one of drugs which are used as arthritis therapeutic agents in a current clinical practice, had excellent anti-inflammatory and arthritis therapeutic effects as an immunodepressant, but may have side effects such as toxicity to normal cells, oral ulcer, alopecia, interstitial pneumonia, bone marrow suppression, and the like. As a result, the methotrexate is known as a drug that needs to pay close attention after medication with sufficient medication counseling. In Example 2, the arthritis therapeutic effect with the peptide of the present invention and methotrexate (1 mg/kg) was evaluated and compared with the arthritic progression index by using the same method as Example 2-2.
# [2] = Evaluation of toxicity: mortality and change in body weight after intraperitoneal administration; assay type: in vivo; conditions: individual mouse
# Protocol: In Example 3, in order to confirm the toxicity of the peptide of the present invention, the PSP dimer or the PSP trimer was intraperitoneally administered to mouse at various concentrations (0.1 μmole, 1 μmole, and 10 μmole), and then the mortality and a change in body weight of each mouse were measured. On the other hand, as a control, a non-administration group (Normal) and a PBS-treated group (PBS) were used.
molecule,measurement,setting,value
"CN(Cc1cnc2nc(N)nc(N)c2n1)c1ccc(C(=O)N[C@@H](CCC(=O)O)C(=O)O)cc1 [MTX, methotrexate]",arthritis progression index,"[1]; Table 6, day 14, comparison of PSP dimer with methotrexate (1 mg/kg), 0 to 16 scores",0.0
same,arthritis progression index,"[1]; Table 6, day 17, comparison with methotrexate (1 mg/kg)",0.0
same,arthritis progression index,"[1]; Table 6, day 20, comparison with methotrexate (1 mg/kg)",0.0
same,arthritis progression index,"[1]; Table 6, day 22, comparison with methotrexate (1 mg/kg)",0.0
same,arthritis progression index,"[1]; Table 6, day 25, comparison with methotrexate (1 mg/kg)",0.0
same,arthritis progression index,"[1]; Table 6, day 27, comparison with methotrexate (1 mg/kg)",1.0
same,arthritis progression index,"[1]; Table 6, day 29, comparison with methotrexate (1 mg/kg)",0.8
same,arthritis progression index,"[1]; Table 6, day 31, comparison with methotrexate (1 mg/kg)",2.8
same,arthritis progression index,"[1]; Table 6, day 35, comparison with methotrexate (1 mg/kg)",3.2
same,arthritis progression index,"[1]; Table 7, day 14, comparison of PSP trimer with methotrexate (1 mg/kg), 0 to 16 scores",0.0
same,arthritis progression index,"[1]; Table 7, day 17, comparison with methotrexate (1 mg/kg)",0.0
same,arthritis progression index,"[1]; Table 7, day 20, comparison with methotrexate (1 mg/kg)",0.0
same,arthritis progression index,"[1]; Table 7, day 22, comparison with methotrexate (1 mg/kg)",0.0
same,arthritis progression index,"[1]; Table 7, day 25, comparison with methotrexate (1 mg/kg)",0.0
same,arthritis progression index,"[1]; Table 7, day 27, comparison with methotrexate (1 mg/kg)",1.0
same,arthritis progression index,"[1]; Table 7, day 29, comparison with methotrexate (1 mg/kg)",0.8
same,arthritis progression index,"[1]; Table 7, day 31, comparison with methotrexate (1 mg/kg)",2.8
same,arthritis progression index,"[1]; Table 7, day 35, comparison with methotrexate (1 mg/kg)",3.2
"PSPPSP [PSP dimer, PSPPSP]",Body weight,"[2]; PSP dimer 0.1 μmol intraperitoneal, day 15",20.7 g and 20.2 g and 21.6 g and 21 g and 20.1 g and 20.9 g and 19.9 g
same,Body weight,"[2]; PSP dimer 0.1 μmol intraperitoneal, day 18",20.7 g and 21.1 g (2×) and 22.7 g and 22.4 g and 21.2 g and 21.8 g
same,Body weight,"[2]; PSP dimer 0.1 μmol intraperitoneal, day 22",23.3 g and 21.9 g and 23.5 g and 22.9 g and 21.4 g and 23.1 g and 22.3 g
same,Body weight,"[2]; PSP dimer 0.1 μmol intraperitoneal, day 25",22.7 g and 21.4 g and 22.1 g and 23 g and 21.1 g and 22.5 g and 21.7 g
same,Body weight,"[2]; PSP dimer 0.1 μmol intraperitoneal, day 29",23.2 g (2×) and 21.7 g (2×) and 22.7 g and 23.3 g and 19.5 g
same,Body weight,"[2]; PSP dimer 0.1 μmol intraperitoneal, day 32",23.5 g and 22.1 g and 23.3 g and 22.7 g and 19.3 g and 23.9 g and 21 g
same,Body weight,"[2]; PSP dimer 0.1 μmol intraperitoneal, day 36",23.7 g and 18.6 g (2×) and 22.4 g and 22.3 g and 24.2 g and 20.2 g
same,Body weight,"[2]; PSP dimer 1 μmol intraperitoneal, day 18",23.3 g and 20 g and 22.5 g and 22.1 g and 20.8 g and 21.8 g and 21.1 g
same,Body weight,"[2]; PSP dimer 1 μmol intraperitoneal, day 22",24.4 g and 20.7 g and 22.5 g (3×) and 23.2 g and 21.5 g
same,Body weight,"[2]; PSP dimer 1 μmol intraperitoneal, day 25",23.9 g and 19.6 g and 21.8 g and 22.9 g and 21.6 g and 22.3 g and 22.4 g
same,Body weight,"[2]; PSP dimer 1 μmol intraperitoneal, day 29",23.9 g and 20.1 g and 21.8 g and 23.4 g and 21.3 g and 22.7 g and 23.1 g
same,Body weight,"[2]; PSP dimer 1 μmol intraperitoneal, day 36",23 g (2×) and 20.7 g and 23.4 g and 21.4 g and 19.4 g and 24.5 g
same,Body weight,"[2]; PSP dimer 10 μmol intraperitoneal, day 15",19.5 g
same,Body weight,"[2]; PSP dimer 10 μmol intraperitoneal, day 18",20.8 g
"PSPPSPPSP [PSP trimer, PSPPSPPSP]",Body weight,"[2]; PSP trimer 0.1 μmol intraperitoneal, day 15",20.75 g (2×) and 20.64 g and 21.54 g and 19.43 g and 22.27 g and 21.68 g
same,Body weight,"[2]; PSP trimer 0.1 μmol intraperitoneal, day 17",21 g and 20.6 g and 21.5 g and 19.1 g and 22.3 g and 21.3 g and 21.7 g
same,Body weight,"[2]; PSP trimer 0.1 μmol intraperitoneal, day 20",21.2 g and 21.3 g and 20.8 g and 19.6 g and 22.9 g and 21.9 g and 21.7 g
same,Body weight,"[2]; PSP trimer 0.1 μmol intraperitoneal, day 24",22.2 g and 21.7 g and 22.6 g and 19.9 g and 23.8 g and 22.8 g and 21.9 g
same,Body weight,"[2]; PSP trimer 0.1 μmol intraperitoneal, day 27",21.3 g and 21.4 g and 22.7 g and 19.5 g and 23.6 g and 22.2 g and 21.8 g
same,Body weight,"[2]; PSP trimer 0.1 μmol intraperitoneal, day 31",20.3 g and 21.3 g and 21 g (2×) and 18.6 g and 24.3 g and 23.3 g
same,Body weight,"[2]; PSP trimer 0.1 μmol intraperitoneal, day 34",19.7 g and 20.5 g and 19.8 g and 18.1 g and 24.1 g and 23 g and 21.3 g
same,Body weight,"[2]; PSP trimer 1 μmol intraperitoneal, day 15",20.76 g and 21.15 g (2×) and 21.62 g and 21.02 g and 20.4 g and 19.02 g
same,Body weight,"[2]; PSP trimer 1 μmol intraperitoneal, day 17",21.5 g (2×) and 21.1 g and 22.2 g and 21.7 g and 21.3 g and 19.1 g
same,Body weight,"[2]; PSP trimer 1 μmol intraperitoneal, day 20",22.3 g and 21.6 g and 22.9 g and 22.1 g and 21.8 g and 20.8 g and 19.2 g
same,Body weight,"[2]; PSP trimer 1 μmol intraperitoneal, day 24",23.2 g and 22.6 g and 23.8 g and 22.7 g (2×) and 21.3 g and 20.2 g
same,Body weight,"[2]; PSP trimer 1 μmol intraperitoneal, day 27",22.3 g and 22.4 g and 23.8 g and 22.8 g and 22.6 g and 21.5 g and 19.8 g
same,Body weight,"[2]; PSP trimer 1 μmol intraperitoneal, day 31",21.4 g (2×) and 22.7 g and 22.8 g and 22.5 g and 21.7 g and 19.9 g
same,Body weight,"[2]; PSP trimer 1 μmol intraperitoneal, day 34",20.1 g and 22.6 g and 21.1 g and 19.9 g and 20.7 g and 22 g and 19.3 g
same,Body weight,"[2]; PSP trimer 10 μmol intraperitoneal, day 15",21.9 g
same,Body weight,"[2]; PSP trimer 10 μmol intraperitoneal, day 17",21.2 g
